Consider two compounds from US6852688B2, “Compositions for treating diabetic retinopathy and methods of using same” (University of Florida, priority 2000, dated 2005).

Series [1] relates to patients with type I diabetes and severe non-proliferative DR or non-"high risk" proliferative DR. Kind of series: Phase I human study: octreotide plus conventional diabetes management versus conventional management alone, 15 months. The format is in vivo. The text has this: A total of 39 patients with type I or type II diabetes and diagnosed with either severe non-proliferative DR or non-“high risk” proliferative DR were enrolled between 1991 and 1996 into Phase I or Phase II of the study. Subjects were recruited from patients treated for diabetes mellitus at the University of Florida Adult Endocrinology clinics and referrals from community retinal specialists. All patients provided written informed consent to participate in required study procedures. Volunteers in both phases of the study were randomized to receive conventional diabetes management alone (control group) or octreotide treatment with conventional diabetes care (OCT group). Octreotide was administered via subcutaneous injection 4 times daily or via continuous subcutaneous infusion with doses individually adjusted to the highest tolerated somatostatin analogue levels. The intent was to increase the dose of octreotide until serum IGF-1 was decreased to the hypopituitary range of 75 ng/mL or drug related adverse effects limited octreotide dosing. […] It was expected that approximately 35 to 50% of the control group would progress to photocoagulation within the 15-month period (The Diabetic Retinopathy Study Research Group: Indications for photocoagulation treatment of diabetic retinopathy: Diabetic Reinopathy Study Report No. 14. Int. Opthalmol. Clin. 27:239 (1987)).
Subjects were evaluated at monthly intervals for ocular changes using procedures established in the Early Treatment Diabetic Retinopathy Study (ETDRS) trial (Techniques for scatter and local photocoagulation treatment of diabetic retinopathy. Early Treatment Diabetic Retinopathy Study Report No. 3. The Early Treatment Diabetic Retinopathy Study Research Group. Int Ophthalmol Clin. 27:254-64 (1987)). Ocular examination included fluorescein angiograms and stereoscopic fundis photographs using seven standard photographic fields. Each field was 30 degrees with the first 2 fields centered on the disc and macula. The other fields imaged the surrounding retina. Photographs were assessed for severity of retinopathy using an extension of the modified Airlie House classification scheme. Severe non-proliferative DR required the presence of at least 3 of the following characteristics: cotton wool patches, venous beading, intraretinal microvascular abnormalities (IRMA) or extensive retinal hemorrhages. Inclusion criteria also required understanding the study protocol and willingness to participate in required study procedures. Exclusion criteria included: current use of tobacco products, regular medication other than prescribed antidiabetic agents and thyroxine, history of psychiatric illness, illicit drug use, sitting diastolic blood pressure values greater than […], serum creatinine clearance below 30 ml/min, and a body mass index that differed more than 20% from normal published ranges for the subject's height and sex.
Sixteen subjects with Type I diabetes participated in and completed the Phase-I protocol, with 8 patients randomly assigned to conventional diabetes management and 8 patients assigned treatment with maximally tolerated doses of octreotide in conjunction with routine diabetes management.
Initial octreotide doses of 500 μg/day were escalated based on IGF-1 levels to a maximum of 3000 μg/day during the 15-month treatment period. The range of maximally tolerated octreotide doses used throughout the 15-month treatment period was 600 to 3000 μg/day. The Phase protocol included a 5-day evaluation period with patients confined to the clinical research unit at study initiation. Octreotide treated patients were monitored for response to the initial 500 μg/day dose of octreotide (administered as a constant subcutaneous infusion). GH secretion was quantified from area under the serum concentration versus time curve (AUC) for blood samples collected every 2 to 4 hours throughout a 24-hour period. […]

The test system of series [2] is human retinal endothelial cells. Conditions: rapidly proliferating cells, in vitro; cited from earlier work.
The subject of a further series is patients with early DR. Conditions: cited from earlier work.
In series [3] the test system is patients with Type I or Type II diabetes and severe non-proliferative DR or non-"high risk" proliferative DR. The series can be described thus: Phase II human study: octreotide plus thyroid hormone (levothyroxine) versus conventional diabetes management, 15 months. The format is in vivo. Conditions: thyroxine alone 100 to 200 μg/day for hypothyroidism, no octreotide. The text has this: A total of 39 patients with type I or type II diabetes and diagnosed with either severe non-proliferative DR or non-“high risk” proliferative DR were enrolled between 1991 and 1996 into Phase I or Phase II of the study. Subjects were recruited from patients treated for diabetes mellitus at the University of Florida Adult Endocrinology clinics and referrals from community retinal specialists. All patients provided written informed consent to participate in required study procedures. Volunteers in both phases of the study were randomized to receive conventional diabetes management alone (control group) or octreotide treatment with conventional diabetes care (OCT group). Octreotide was administered via subcutaneous injection 4 times daily or via continuous subcutaneous infusion with doses individually adjusted to the highest tolerated somatostatin analogue levels. […]
Subjects were evaluated at monthly intervals for ocular changes using procedures established in the Early Treatment Diabetic Retinopathy Study (ETDRS) trial (Techniques for scatter and local photocoagulation treatment of diabetic retinopathy. Early Treatment Diabetic Retinopathy Study Report No. 3. The Early Treatment Diabetic Retinopathy Study Research Group. Int Ophthalmol Clin. 27:254-64 (1987)). […] Photographs were assessed for severity of retinopathy using an extension of the modified Airlie House classification scheme. […]

[4] abbreviates: octreotide treated group, p<0.05 vs conventionally treated group.

Where “and” joins values, the source holds several entries; their conditions need not be identical. Identical values can stand only once.

For `C[C@@H](O)[C@@H]1NC(=O)[C@H](CCCCN)NC(=O)[C@@H](Cc2c[nH]c3ccccc23)NC(=O)[C@H](Cc2ccccc2)NC(=O)[C@@H](NC(=O)[C@H](N)Cc2ccccc2)CSSC[C@@H](C(=O)N[C@H](CO)[C@@H](C)O)NC1=O` [octreotide], the “patients requiring PRP during the 15-month study” value in series [1] (8 patients per group, control also 4 of 8) is “Four and 4 of 8”. In addition, the “mean time for disease progression to laser surgery (PRP)” value in series [1] (control 6.0 months, not different) was 8.5 months. Also, in series [1] (conventional management 8.1%±1.8%, p<0.05), the “mean HbA1c after at least 3 months of study” value is reported as 6.4%±0.9. Moreover, the “mean decrease in 24 hour AUC for GH (GH secretion)” value in series [1] (initial 500 μg/day constant subcutaneous infusion, day 5 of treatment, compared to control, p<0.05) stood at 33%. For the same compound, the “patients with IGF-1 decreased into the hypophysectomized range of 75 ng/ml” value in series [1] (maximally tolerated doses 600 to 3000 μg/day) is on record as 1 of 8. In series [1] (maximally tolerated octreotide in the absence of thyroid hormone replacement), the “effect on progression of DR” value is “not effective in retarding progression of DR”. In addition, the “mean IGF-1 at the end of treatment” value in series [1] (octreotide 600 to 3000 μg/day, 15 months, decreased from 241±58 ng/ml at study enrollment, p<0.05 vs control) worked out at 130 ± 38 ng/mL. In series [1] (setting [4]), the “decrease in insulin requirements” value came to 29% and the improvement in proteinuria was 82%. In addition, the “effect on IGF-I and b-FGF stimulated growth of cells” value in series [2] is “direct inhibitory effects”. Further, the “retinal disease versus conventionally managed patients” value with patients with early DR (early DR, one year, 400 μg/day) is “no difference”. Moreover, the thyroid adverse finding result with patients with early DR (infused for one year with 400 μg/day, no evidence for clinical significance) is reported as “mild hypothyroidism”.

On to `N[C@@H](Cc1cc(I)c(Oc2cc(I)c(O)c(I)c2)c(I)c1)C(=O)O` [thyroxine, levothyroxine], for which the “control patients receiving thyroxine who required PRP” value in series [3] is 3 of the 7.
